Reference: US7153524B2, “Method for improving adsorption of a drug from ethylene oxide derivative” (Astellas Pharma Inc., priority 2002, dated 2006)
Converted amounts (≈) assume the structure as drawn. Where a name gives a salt, the structure may show the parent alone.

Tests used:
[1] = Adsorption of various compounds on the oil-gel phase (Experiment 5); format: physicochemical; details: 0.8% mucin, 600 μg loading, 2 hours
Procedure: When Macrogol 6000 was added to the aqueous phase, it was brought to 3.5% (n=3,6). […] The compounds that were used were […], nicardipine hydrochloride, compound B, and compound C. […] Furthermore, the oil phase surface was washed with methanol and the drug adsorbed on the oil phase in the recovered solution was assayed with an ultraviolet-visible spectrophotometer for each compound.

[2] = Solubility of compound A in water and components of mucus layer; format: physicochemical
Procedure: Compound A is a drug that acts directly from the gastric lumen side on the H. pylori that lives in the mucous layers and therefore, the case wherein after dissolution (I), the bulk powder that has been administered transfers (IV) and the case where the bulk powder is dissolved (II) after transferring to the mucous layers (III) will be considered. The effects of Macrogol 6000 on the course of dissolution of compound A were studied. A specific amount of compound A was added to ion-exchanged water, a 0.8% mucin (Sigma) solution, a 6.2% BSA (Sigma) solution, and linoleic acid (Sigma), and various drugs suspensions were obtained by exposure for 20 minutes to ultrasonic waves (Sono Cleaner, Kaijo Corporation). The rest of the procedure was performed as in Example 1 and the following samples were obtained.
Solubility of compound A in water was calculated by filtering the liquid after dispersion using a hydrophilic filter (0.45 μm, Advantec) and submitting the product to assay by high-performance liquid chromatography (HPLC hereafter) (n=2, sample (1); n=3, sample (2)).
Solubility of the drug in mucin was calculated by filtering the liquid after dispersion using a hydrophilic filter (0.8 μm, Advantec) and submitting the product to assay by HPLC (n=3, samples (3) and (4)).
The liquid after dispersion was filtered with a hydrophilic filter (0.45 μm, Advantec), absorbance at 370 nm and 550 nm (corrected for turbidity) was determined under room temperature using an ultraviolet-visible spectrophotometer, and solubility was calculated (n=3, samples (5) and (6)).
The liquid after dispersion was filtered with a hydrophilic filter (0.45 μm, Advantec), absorbance at 366 nm and 550 nm (corrected for turbidity) was determined under room temperature using an ultraviolet-visible spectrophotometer, and solubility was calculated (n=3, samples (7) and (8)).

[3] = Adsorption of compound A from aqueous phase onto immobilized oil-gel phase (Experiment 2); format: physicochemical; details: for adsorption amount of chemical compound A: drug charge 600 μg, 2 h
Procedure: (§1) In order to study adsorption of a drug from an aqueous phase onto an oil phase (model of mucous layers), an in vitro test system wherein mixing of the oil components in the aqueous phase is prevented was constructed by immobilizing the oil phase with a gelling agent and separating it from the aqueous phase of a drug suspended in a mucin solution. Immobilization of the oil phase was performed by adding 120 mg of an oil gelling agent, which is a natural oil and fat fatty acid extracted from castor oil (Johnson Co., Ltd.), to 2 mL of medium chain fatty acid triglyceride (Nihon Oils and Fats Co., Ltd.; brand name: Panaset) and preparing an oil gel in a test tube (inner diameter of 1 cm, Eiken tube No. 5). A solution of 600 μg of compound A suspended in 2 mL of an aqueous 0.8% mucin solution was prepared and brought into contact with the oil phase (n=6). When Macrogol 6000 was added to the aqueous phase, the concentration was brought to 3.5% (n=3 to 6). After setting the solution aside for two hours, the aqueous phase was recovered and compound A was assayed by HPLC. Furthermore, the surface of the oil phase was washed with methanol and compound A in the recovered solution was assayed by HPLC.

[4] = Rate of adsorption of compound A on the oil-gel phase in presence of POE excipients (Experiment 3); format: physicochemical
Procedure: as §1
The rate of adsorption of a drug of compound A on the oil phase was measured by the same method as in Example 2.

H. pylori [5] = test: In vivo anti-H. pylori activity, Mongolian gerbil infection model (Experiment 4); set-up: species or system Mongolian gerbils; details: for Clearance rate: oral twice a day for three days
Procedure: In vivo anti-H. pylori activity was evaluated with animal experiments using Mongolian gerbil infection models. […] The drug was administered twice a day for three days at an administration volume of 20 mL/kg using an oral stomach tube. The stomach was autopsied and excised and the number of H. pylori in the stomach were measured the day after the final administration. In vivo anti-H. pylori activity was evaluated from clearance, that is, the ratio of the number of cases in which H. pylori was identified and the number of cases in which the number of bacteria after treatment was below the detection limit.

H. pylori [6] = test: Minimum concentration at which an increase in bacteria is inhibited; format: cell-based
H. pylori [7] = details: compound used alone; cited from earlier work

Cc1cccc(NC(=O)N[C@@H]2N=C(c3ccccc3)c3ccccc3N(CC(=O)c3ccccc3C)C2=O)c1 [compound B, (R)-1-[2,3-dihydro-1-(2′-methylphenacyl)-2-oxo-5-phenyl-1H-1,4-benzodiazepin-3-yl]-3-(3-methylphenyl)urea]
adsorption amount of chemical compound ([1]; with 3.5% PEG6000): 411 ± 3 µg
adsorption amount of chemical compound ([1]; without PEG6000): 269 ± 13 µg

CCCCCC/C=C/Cc1c(C)c(=O)c2ccccc2n1O [compound A, 1-hydroxy-2-(2-trans-nonenyl)-3-methyl-4(1H)-quinolone]
solubility ([2]; 0.8% mucin aq. solution (sample 3)): 5.9 µg/mL (≈ 19.7 µM)
solubility ([2]; 0.8% mucin aq. solution +3.5% PEG6000 (sample 4)): 6.9 µg/mL (≈ 23 µM)
solubility ([2]; 6.2% BSA aq. solution (sample 5)): 18.0 µg/mL (≈ 60.1 µM)
solubility ([2]; 6.2% BSA aq. solution +3.5% PEG6000 (sample 6)): 26.9 µg/mL (≈ 89.8 µM)
increase in solubility when Macrogol 6000 was added ([2]; BSA solution, sample 6 vs 5): 1.5 fold
increase in solubility when Macrogol 6000 was added ([2]; aqueous mucin solution, sample 4 vs 3): 1.2 fold
solubility ([2]; distilled water +3.5% PEG6000 (sample 2)): 0.1 µg/mL (≈ 0.334 µM)
solubility ([2]; distilled water, no PEG6000 (sample 1)): 0.1 µg/mL (≈ 0.334 µM)
solubility ([2]; linoleic acid (sample 7)): 135.0 µg/mL (≈ 451 µM)
solubility ([2]; linoleic acid +10% PEG6000 (sample 8)): 110.0 µg/mL (≈ 367 µM)
drug adsorbed at the surface of the oil phase, % of the drug that was added ([3]; compound A-mucin suspension with Macrogol 6000, average): 93%
drug adsorbed at the surface of the oil phase, % of the charged amount ([3]; compound A-mucin suspension, no Macrogol 6000): 47%
adsorption amount of chemical compound A ([3]; mucin (+), with 3.5% PEG6000): 506 µg
adsorption amount of chemical compound A ([3]; mucin (+), with 3.5% PEG6000, listed as chemical compound A): 506 ± 53 µg
adsorption amount of chemical compound A ([3]; mucin (+), without PEG6000): 259 µg
adsorption amount of chemical compound A ([3]; mucin (+), without PEG6000, listed as chemical compound A): 259 ± 63 µg
adsorption amount of chemical compound A ([3]; mucin (−), with 3.5% PEG6000): 173 ± 25 µg
adsorption amount of chemical compound A ([3]; mucin (−), without PEG6000): 249 ± 24 µg
increase in amount adsorbed on the oil phase when Macrogol 6000 was added ([3]; mucin suspension, with vs without Macrogol 6000): 2.0 fold
Adsorption on the oil-gel phase, amount(%) ([4]; excipient HCO 60 (n 60, m 10)): 33 ± 14%
Adsorption on the oil-gel phase, amount(%) ([4]; excipient HCO 80 (n 80, m 13.3)): 17 ± 10%
Adsorption on the oil-gel phase, amount(%) ([4]; excipient HCO 100 (n 100, m 16.7)): 37 ± 11%
Adsorption on the oil-gel phase, amount(%) ([4]; excipient PEG400 (n 8, m 8)): 42 ± 9%
Adsorption on the oil-gel phase, amount(%) ([4]; excipient PEG 4000 (n 72, m 72)): 42 ± 4 %
Adsorption on the oil-gel phase, amount(%) ([4]; excipient PEG 6000 (n 188, m 188)): 72 ± 3 %
Adsorption on the oil-gel phase, amount(%) ([4]; excipient PEG 20000 (n 455, m 455)): 79 ± 0 %
Adsorption on the oil-gel phase, amount(%) ([4]; excipient Pluronic F68 (n 160, m 80)): 67 ± 3 %
Adsorption on the oil-gel phase, amount(%) ([4]; excipient Pluronic L31 (n 3, m 1.5)): 28 ± 5%
Adsorption on the oil-gel phase, amount(%) ([4]; excipient Pluronic L44 (n 20, m 10)): 25 ± 2%
Adsorption on the oil-gel phase, amount(%) ([4]; excipient Pluronic L64 (n 27, m 13.5)): 32 ± 5%
Adsorption on the oil-gel phase, amount(%) ([4]; excipient Pluronic P85 (n 54, m 27)): 40 ± 4 %
Adsorption on the oil-gel phase, amount(%) ([4]; excipient Pluronic P103 (n 29, m 14.5)): 22 ± 7%
Adsorption on the oil-gel phase, amount(%) ([4]; without excipient): 19 ± 7%
augmentation of the in vivo anti-H. pylori activity (H. pylori [5]; 0.2% Macrogol 6000 added vs 0.5% MC suspension alone): 10 fold
clearance (H. pylori [5]; 0.2% Macrogol 6000 in 0.5% MC suspension, dose of 0.1 mg/kg or higher): ≥ 80%
in vivo anti-H. pylori activity with Macrogol 6000 compared to without (H. pylori [5]; 0.2% of Macrogol 6000 added): augmentation of in vivo anti-H. pylori activity was seen
Clearance ratio (H. pylori [5]; PEG6000 0%, dose 0.1 mg/kg): (0/5)
Clearance rate (H. pylori [5]; PEG6000 0%, dose 0.1 mg/kg): 0%
Clearance ratio (H. pylori [5]; PEG6000 0%, dose 0.3 mg/kg): (1/5)
Clearance rate (H. pylori [5]; PEG6000 0%, dose 0.3 mg/kg): 20%
Clearance ratio (H. pylori [5]; PEG6000 0%, dose 1 mg/kg): (4/5)
Clearance rate (H. pylori [5]; PEG6000 0%, dose 1 mg/kg): 80%
Clearance rate (H. pylori [5]; PEG6000 0%, dose 1 mg/kg, listed as chemical compound A): 80%
Clearance ratio (H. pylori [5]; PEG6000 0%, dose 3 mg/kg): (4/5)
Clearance rate (H. pylori [5]; PEG6000 0%, dose 3 mg/kg): 80%
Clearance ratio (H. pylori [5]; PEG6000 0.2%, dose 0.1 mg/kg): (4/5)
Clearance rate (H. pylori [5]; PEG6000 0.2%, dose 0.1 mg/kg): 80%
Clearance ratio (H. pylori [5]; PEG6000 0.2%, dose 0.3 mg/kg): (4/4)
Clearance rate (H. pylori [5]; PEG6000 0.2%, dose 0.3 mg/kg): 100%
Clearance ratio (H. pylori [5]; PEG6000 0.2%, dose 1 mg/kg): (4/5)
Clearance rate (H. pylori [5]; PEG6000 0.2%, dose 1 mg/kg): 80%
Clearance ratio (H. pylori [5]; PEG6000 0.2%, dose 3 mg/kg): (4/4)
Clearance rate (H. pylori [5]; PEG6000 0.2%, dose 3 mg/kg): 100%
minimum concentration at which an increase in bacteria is inhibited (H. pylori [6]): 0.025 µg/mL
number of live bacteria in vivo (H. pylori [7]): reduction in the number of live bacteria in vivo

COC(=O)C1=C(C)NC(C)=C(C(=O)OCCN(C)Cc2ccccc2)C1c1cccc([N+](=O)[O-])c1 (stereo not shown) [nicardipine, nicardipine hydrochloride, reference compound]
adsorption amount of chemical compound ([1]; with 3.5% PEG6000): 96 ± 5 µg
adsorption amount of chemical compound ([1]; without PEG6000): 47 ± 6 µg

Cc1nc2c([nH]1)-c1ccccc1N(C(=O)c1ccc(NC(=O)c3ccccc3-c3ccccc3)cc1)CC2.Cl [compound C, 4′-[(2-methyl-1,4,5,6-tetrahydroimidazo[4,5-d][1]benzazepin-6-yl)carbonyl]-2-phenylbenzanilide hydrochloride]
adsorption amount of chemical compound ([1]; with 3.5% PEG6000): 370 ± 12 µg
adsorption amount of chemical compound ([1]; without PEG6000): 335 ± 10 µg
